{
  "source": "paper PMC2964311",
  "about": "“The Human Host Defense Peptide LL-37 Interacts with Neisseria meningitidis Capsular Polysaccharides and Inhibits Inflammatory Mediators Release” (PLoS ONE, 2010)",
  "key": {"RAW 264.7 macrophages": {"test_system": "RAW 264.7 macrophages", "experiment": "Nitric oxide release from RAW 264.7 macrophages induced with meningococcal CPS (Griess method)", "assay_type": "cell-based, murine", "method": "(§1) Human THP-1 (macrophage-like cells) and murine RAW 264.7 (TLR4-sufficient), 23ScCr (TLR4-deficient) and HEK-TLR2/6/CD14 stably transfected cell lines were stimulated with meningococcal CPS polymers with or without pre-incubation with LL-37 and its analogs (Table 1). CPS polymers were purified from the LPS-deficient serogroup B Neisseria meningitidis lpxA mutant as well as other meningococcal serogroups A, B, C, W135 and Y. Purified CPS samples were freshly dissolved in pyrogen-free sterile H2O at 1 mg/ml stock concentration and vortexed for 2 min. Working CPS concentrations (ranging from 100 µg/ml to 50 ng/ml) were made in duplicate wells using sterile PBS by serial fold dilutions in the 96-well tissue culture plates (Becton Dickinson, Franklin Lakes, NJ) at 50 µl final volumes. Cationic peptides (2, 4 or 8 µg/ml) or PBS equivalent volumes were added to designated wells and pre-incubated for 30 min at 37°C. Freshly grown THP-1 cells and HEK-TLR2/6 transfected cells as well as murine macrophages, each adjusted to 10^6 cell/ml and 250 µl aliquots were dispensed into each well at final 250×10^3 cell density in the designated 96-well plates. The plates were incubated overnight at 37°C with 5% CO2 and humidity. Supernatants from stimulated cells were harvested and stored at −20°C until use.\nFreshly grown adherent RAW 246.7 or 23ScCr (TLR4-deficient) macrophages were harvested, washed and re-suspended in Dulbecco's complete media, counted and adjusted to 10^6 cell/ml. 250 µl aliquots were then dispensed into each well of a 96-well plate at final 250×10^3 cell density prior to stimulation with purified CPS polymers with or without cationic peptides. The induced RAW 264.7 or 23ScCr macrophages were incubated overnight at 37°C with 5% CO2 and supernatants were harvested and saved. Nitric oxide release was quantified using the Greiss chemical method as previously described."}, "[1]": {"test_system": "TLR4-sufficient and TLR4-deficient murine macrophages", "experiment": "CXCL10 (IP-10) release from murine macrophages induced with meningococcal CPS", "assay_type": "cell-based", "method": "as §1, with “The plates were incubated overnight at 37°C with 5% CO2 and humidity. Supernatants from stimulated cells were harvested and stored at −20°C until use.” left out\n(§2) The cytokines TNFα, IL-6 and CXCL10 (IP-10), released from THP-1 cells, and IL-8, released from HEK-TLR2 transfected cells stimulated with meningococcal CPS polymers, were quantified by DuoSet ELISA (R&D Systems) as previously described."}, "THP-1 cells [2]": {"test_system": "THP-1 cells", "experiment": "IL-6 release from THP-1 cells induced with meningococcal CPS pre-incubated with peptide (ELISA)", "assay_type": "cell-based, human", "conditions": "THP-1 cells induced overnight with CPS-lpxA pre-incubated with 2 µg/ml peptide, 30 min, 37°C; Figure 1B", "method": "as §1, with “Cationic peptides (2, 4 or 8 µg/ml) or PBS equivalent volumes were added to designated wells and pre-incubated for 30 min at 37°C.” left out, “Supernatants from stimulated cells were harvested and stored at −20°C until use.” left out\nas §2"}, "TLR2": {"test_system": "TLR2", "experiment": "Neutralization of the TLR2-mediated response induced by phospholipid extract PL-lpxA", "assay_type": "cell-based", "conditions": "phospholipid extraction from LOS-deficient meningococci"}, "[3]": {"test_system": "meningococcal CPS-lpxA polymers", "experiment": "Electrophoretic mobility shift assay (EMSA) of CPS complex with LL-37, CD14 and LBP", "assay_type": "binding, Neisseria meningitidis", "conditions": "5 µg LL-37, 0.5 µg rCD14, 0.5 µg rLBP, 3 h 37°C; 8% native PAGE, Western blot; Figure 8 lane 5", "method": "To assess binding of CPS to LL-37 in the presence of human CD14 and LBP, an EMSA assay using native gel conditions was performed. Serogroup B CPS purified from a LOS-deficient meningococcal lpxA strain were dissolved in sterile H2O at 1 mg/ml concentration and 20 µl were transferred into an Eppendorf tube mixed with 10 µl (5 µg) of LL-37, 10 µl (0.5 µg) of human rCD14 and 10 µl (0.5 µg) of rLBP (R&D Systems) in […] and incubated for 3 h at 37°C. An aliquot of 7.5 µl of the mixed complexes were transferred into a new Eppendorf tube and mixed with an equal volume of sample buffer (0.1 M Tris-glycine buffer containing 20% glycerol and bromophenol blue) and 15 µl of the mixture were loaded on 8% native polyacrylamide gel electrophoresis (PAGE) without SDS as previously described. Electrophoresis was performed with Tris-glycine buffer pH 8.8 without SDS and run for 2 h at 4°C. The gel-shifting of CPS complexes was detected by Western blot method using biotinylated anti CD14 and anti LBP antibodies (R&D Systems) diluted 1∶1500× with blocking buffer."}, "[4]": {"test_system": "N. gonorrhoeae strain FA 19", "conditions": "N. gonorrhoeae FA19 (non-encapsulated); assays in triplicate", "method": "The peptides were dissolved in 0.01 % (v/v) acetic acid and stored at −20°C prior to use. Antibacterial assays were performed as described previously and used N. gonorrhoeae strain FA 19. All assays were performed in triplicate and values are reported as the minimal inhibitory concentration (MIC)."}, "THP-1 cells [5]": {"test_system": "THP-1 cells", "experiment": "TNFα release from THP-1 cells induced with meningococcal CPS pre-incubated with peptide (ELISA)", "assay_type": "cell-based, human", "conditions": "THP-1 cells induced overnight with serogroup B CPS-lpxA pre-incubated with 2 µg/ml peptide, 30 min, 37°C; Figure 1A", "method": "as §1, with “Cationic peptides (2, 4 or 8 µg/ml) or PBS equivalent volumes were added to designated wells and pre-incubated for 30 min at 37°C.” left out\nas §2"}, "[6]": {"test_system": "HEK-TLR2/6 stably transfected cells", "experiment": "IL-8 release from HEK-TLR2/6 stably transfected cells induced with meningococcal CPS pre-incubated with peptide (ELISA)", "assay_type": "cell-based, human", "method": "as §1, §2"}},
  "data": [
    {"smiles": "CC[C@H](C)[C@H](NC(=O)[C@H](CCCCN)NC(=O)[C@H](CCC(=O)O)NC(=O)[C@H](CCCCN)NC(=O)[C@H](CO)NC(=O)[C@H](CCCCN)NC(=O)[C@H](CCCNC(=N)N)NC(=O)[C@H](Cc1ccccc1)NC(=O)[C@H](Cc1ccccc1)NC(=O)[C@H](CC(=O)O)NC(=O)CNC(=O)[C@H](CC(C)C)NC(=O)[C@@H](N)CC(C)C)C(=O)NCC(=O)N[C@@H](CCCCN)C(=O)N[C@@H](CCC(=O)O)C(=O)N[C@@H](Cc1ccccc1)C(=O)N[C@@H](CCCCN)C(=O)N[C@@H](CCCNC(=N)N)C(=O)N[C@H](C(=O)N[C@H](C(=O)N[C@@H](CCC(N)=O)C(=O)N[C@@H](CCCNC(=N)N)C(=O)N[C@H](C(=O)N[C@@H](CCCCN)C(=O)N[C@@H](CC(=O)O)C(=O)N[C@@H](Cc1ccccc1)C(=O)N[C@@H](CC(C)C)C(=O)N[C@@H](CCCNC(=N)N)C(=O)N[C@@H](CC(N)=O)C(=O)N[C@@H](CC(C)C)C(=O)N[C@H](C(=O)N1CCC[C@H]1C(=O)N[C@@H](CCCNC(=N)N)C(=O)N[C@H](C(=O)N[C@@H](CCC(=O)O)C(=O)N[C@@H](CO)C(=O)O)[C@@H](C)O)C(C)C)[C@@H](C)CC)C(C)C)[C@@H](C)CC", "note": "[LL-37]", "values": [
      {"measurement": "Nitric oxide release by CPS-lpxA complexes used in gel-shift", "setting": "RAW 264.7 macrophages; RAW 264 macrophages, complexes with CD14, LBP and LL-37, data not shown", "result": "significant reduction in nitric oxide release"},
      {"measurement": "Cytokine release after pre-treatment of macrophages", "setting": "RAW 264.7 macrophages; RAW 264 pre-treated with 10 µg/ml LL-37 for 30 min, washed, then CPS-lpxA 50 µg/ml, nitric oxide read-out, Figure S2", "result": "did not affect cytokine release"},
      {"measurement": "Nitric oxide release", "setting": "RAW 264.7 macrophages; RAW 264.7 induced with CPS-lpxA pre-incubated with 2 µg/ml peptide, nitrite after 24 h, Figure 1D", "result": "inhibited"},
      {"measurement": "CXCL10 (IP-10) release", "setting": "[1]", "result": "inhibited"},
      {"measurement": "IL-6 release", "setting": "THP-1 cells [2]", "result": "inhibited"},
      {"measurement": "Neutralization of biologic activity of PL-lpxA", "setting": "TLR2", "result": "failed to neutralize"},
      {"measurement": "Gel-shift of CPS-lpxA-CD14-LBP complexes", "setting": "[3]", "result": "caused a gel-shift"},
      {"measurement": "MIC", "setting": "[4]", "result": 7.8, "unit": "µg/mL"},
      {"measurement": "TNFα release", "setting": "THP-1 cells [5]", "result": "inhibited"},
      {"measurement": "IL-8 release", "setting": "[6]; HEK-TLR2/6 cells induced with CPS-lpxA pre-incubated with 2 µg/ml peptide, Figure 1C", "result": "inhibited"},
      {"measurement": "Neutralization of CPS-induced IL-8 release", "setting": "[6]; HEK-TLR2/6 cells, serogroup A CPS pre-incubated with 4 µg/ml peptide, Figure 2A", "result": "neutralized"},
      {"measurement": "IL-8 release", "setting": "[6]; HEK/TLR2/6 cells stimulated with different meningococcal CPS structures pre-incubated with LL-37", "result": "significant reduction in IL-8 release"},
      {"measurement": "IL-8 release induced by MAPS", "setting": "[6]; HEK/TLR2/6 cells, vaccine grade serogroup A CPS (MAPS) pre-incubated with 2 µg/ml of LL-37, Figure 2B", "result": "significantly reduced"}
    ]}
  ]
}
